For series [1], the system named is mice with bleomycin-induced pulmonary fibrosis. In words: Hydroxyproline content in lung of mice with pulmonary fibrosis. The settings on record: 2 mg/kg i.p.; for hydroxyproline content (μg/mg protein): left lung lobes, chloramine-T method; for content of hydroxyproline in the lungs (in words): versus bleomycin group. Type of series: in vivo, C57BL/6 mice. The protocol: (§1) Male C57BL/6 mice were fasted overnight, then anesthetized with 45 mg/kg sodium pentobarbital by injection intraperitoneally (i.p.), and intratracheally injected with bleomycin at a dose of 3 U/kg. The specific operation steps are as follows: cut the neck skin of the mouse with as little trauma as possible, expose the trachea with the assistance of elbow ophthalmic forceps, puncture the trachea and inject about 50 μL of bleomycin into the trachea with a microsyringe, rotate the mouse quickly and stand it upright for 5 minutes in order to make bleomycin evenly enter the left and right lobe, thereby constructing an animal model. The whole operation was performed at a surgical table at about […]. Mice in the sham operation group were intratracheally injected with an equal amount of physiological saline for injection.
Hydroxyproline accounts for 13.4% (w/w) of collagen, and extremely small amount of elastin, while it is absent in other proteins. […] Pulmonary fibrosis models were prepared according to the method described in Example 2 and administered in groups according to Table 3. The content of hydroxyproline in the lobes of left lung of the animals was measured 28 days later, and the condition of pulmonary fibrosis was evaluated.
The specific method is as follows: the mice in the animal model prepared in Example 2 was feed in a SPF animal room and treated with polypeptide according to the dosing schedule of Table 3, and all left lobes of lung of the experimental animal was taken on the 21st day after the animal model was constructed and the wet weight was recorded. Then 10% (w/w) tissue homogenate was prepared by ultrasonic homogenization using physiological saline. About 150 μL of homogenate supernatant was taken, and 500 μL of alkali hydrolysate was added (provided by Hydroxyproline alkaline hydrolysis kit of Nanjing Jiancheng Bioengineering Technology Co., Ltd.). After vortex mixing, the mixture was treated with alkaline hydrolysis for 40 min under conditions of 120° C., 0.1 Kpa. After adjusting the pH value, the volume was held constant, and the supernatant was taken after performing activated carbon treatment. The hydroxyproline was determined according to the chloramine-T method (the method of the present example refers to the instruction provided with kit, which was purchased from Nanjing Jiancheng Bioengineering Technology Co., Ltd.). […] In FIG. 10, “##” represents that P value is less than 0.01 when comparing the content of hydroxyproline in the administration group with that in the sham operation group; and “*” represents that P value is less than 0.05 and“**” represents that P value is less than 0.01 when comparing the content of hydroxyproline in the administration group with that in bleomycin group.
Hydroxyproline accounts for 13.4% (w/w) of collagen, and accounts for extremely small amount of elastin, while it is absent in other proteins. […] Pulmonary fibrosis models were prepared according to the method described in Example 2 and administered in groups according to Table 3. The content of hydroxyproline in the all lobes of left lung of the animals was measured 28 days later, and the condition of pulmonary fibrosis was evaluated.
The specific method is as follows: the mice in the animal model prepared in Example 2 was feed in an SPF animal room and treated with polypeptide according to the dosing schedule of Table 3, and all the left lobes of lung of the experimental animal was taken on the 21st day after the animal model was constructed and the wet weight was recorded. Then 10% (w/w) tissue homogenate was prepared by ultrasonic homogenization using physiological saline. About 150 μL of homogenate supernatant was taken, and 500 μL of alkali hydrolysate was added (provided by Hydroxyproline alkaline hydrolysis kit of Nanjing Jiancheng Bioengineering Technology Co., Ltd.). After vortex mixing, the mixture was treated with alkaline hydrolysis for 40 min under conditions of 120° C., 0.1 Kpa. […]

Series [2] in a line: α-helix ratio of polypeptides by circular dichroism. Type of series: physicochemical. The settings on record: PBS solution, 1 mg/mL. On the procedure:
The α-helix ratio of the polypeptide was measured by a circular dichromatograph (purchased from Jasco, Japan). The polypeptides MR2, S1, S2, S3, S4, S5, S6, S7, S8, S9, S10 and S11 prepared in Example 1 were dissolved in PBS solution, and the working concentration of the circular dichromatograph was adjusted to 1 mg/mL. […] Among them, the α-helix ratio refers to the percentage of the number of peptide segments of the polypeptide that maintains the alpha helix of the secondary structure in the peptide segments of the total polypeptide.
Background: CD spectra are sensitive to the conformation of chiral molecules.

The subject of series [3] is mice with bleomycin-induced pulmonary fibrosis. In words: Pulmonary function (Flexivent) in mice with pulmonary fibrosis. Type of series: in vivo, C57BL/6 mice. Particulars: 2 mg/kg i.p. On the procedure: as §1
(§2) Pulmonary function is a gold indicator for clinical detection of pulmonary fibrosis in patients. The decline of lung function is generally accompanied by an aggravation of fibrosis, while the improvement of lung function generally represents the recovery of lung tissue structure. Pulmonary fibrosis models were prepared according to the method described in Example 2 and administered in groups according to Table 3. On the 28th day after the construction of the animal model, the mice were anesthetized with sodium pentobarbital (45 mg/kg, i.p.). Lung function was tested by the Flexivent Small-animal respiratory mechanics and the testing methods were TLC and SnapShots (Testing method refers to Lv X, Wang X, Li K, et al. Rupatadine Protects against Pulmonary Fibrosis by Attenuating PAF-Mediated Senescence in Rodents [J]. PloS one, 2013, 8(7): e68631).
as §2, with “lung function also generally represents” for “lung function generally represents”, “to Table 9. 28 days later, the mice” for “to Table 3. On the 28th day after the construction of the animal model, the mice”, “Senescence in Rodents[J]. PloS one,” for “Senescence in Rodents [J]. PloS one,”

The mark [4] stands for this setting: Table 3 groups, 28th day after model construction.

Bridge positions count the residues as written; N and C are the ends. Square brackets hold non-standard residues; d marks the D form. Peptide text beside a SMILES is read from it. S5 = C=CCCC[C@](C)(N)C(=O)O

With `CSCC[C@H](NC(=O)[C@H](CC(C)C)NC(=O)[C@@H](N)Cc1c[nH]cn1)C(=O)N[C@@H](C)C(=O)N[C@@H](CS)C(=O)N[C@@H](Cc1ccccc1)C(=O)N[C@H](C(=O)N[C@@H](CS)C(=O)N[C@@H](C)C(=O)N[C@@H](CCCCN)C(=O)N[C@@H](CCCCN)C(=O)N[C@@H](CC(C)C)C(=O)N[C@@H](CCCCN)C(=O)N[C@@H](CCCCN)C(=O)N[C@@H](CCCNC(=N)N)C(=O)O)[C@@H](C)O` [MR2] (H-HLMACFTCAKKLKKR-OH; N-terminus and C-terminus assumed), the “hydroxyproline content (μg/mg protein)” value in series [1] (Table 3 groups) came out at 0.9087 μg/mg protein. In addition, the “α-helicity (%)” value in series [2] was 0.0%. In series [3] (setting [4]), the “Dynamic compliance (mL/cmH2O)” value came to 0.22 mL/cmH2O, the “Dynamic elasticity (cmH2O./mL)” value is reported as 68.83 cmH2O./mL, the “Dynamic resistance (cmH2O · s/Ml)” value came out at 1.775 cmH2O · s/Ml and the “Inspiratory capacity” value is reported as 0.456 mL. Further, the “pulmonary function of mice with pulmonary fibrosis (in words)” value (“pulmonary function of mice” below) in series [3] (Table 3 groups, FIG. 11) was “improved”.
Regarding `CSCC[C@@H]1NC(=O)[C@H](CC(C)C)NC(=O)[C@@](C)(N)CCCC=CCCC[C@@](C)(C(=O)N[C@@H](Cc2ccccc2)C(=O)N[C@H](C(=O)N[C@@H](CS)C(=O)N[C@@H](C)C(=O)N[C@@H](CCCCN)C(=O)N[C@@H](CCCCN)C(=O)N[C@@H](CC(C)C)C(=O)N[C@@H](CCCCN)C(=O)N[C@@H](CCCCN)C(=O)N[C@@H](CCCNC(=N)N)C(=O)O)[C@@H](C)O)NC(=O)[C@H](C)NC1=O` [S1, S5-Leu-Met-Ala-S5-Phe-Thr-Cys-Ala-Lys-Lys-Leu-Lys-Lys-Arg] (H-[S5]LMA[S5]FTCAKKLKKR-OH; staple 1-5; N-terminus and C-terminus assumed), the “hydroxyproline content (μg/mg protein)” value in series [1] (Table 3 groups) stood at 0.7087 μg/mg protein. In addition, in series [2], the “α-helicity (%)” value was 39.5% and the “α-helix ratio compared with polypeptide MR2 (in words)” value is “significantly higher than that of polypeptide MR2”. Besides, in series [3] (setting [4]), the “Dynamic compliance (mL/cmH2O)” value stood at 0.2883 mL/cmH2O, the “Dynamic elasticity (cmH2O./mL)” value amounted to 52.17 cmH2O./mL, the “Dynamic resistance (cmH2O · s/Ml)” value stood at 1.15 cmH2O · s/Ml and the “Inspiratory capacity” value worked out at 0.71 mL. In series [3] (Table 3 groups, FIG. 11), the “pulmonary function of mice” value is reported as “improved”.
For the compound `CSCC[C@@H]1NC(=O)[C@@](C)(NC(=O)[C@@H](N)Cc2c[nH]cn2)CCCC=CCCC[C@@](C)(C(=O)N[C@H](C(=O)N[C@@H](CS)C(=O)N[C@@H](C)C(=O)N[C@@H](CCCCN)C(=O)N[C@@H](CCCCN)C(=O)N[C@@H](CC(C)C)C(=O)N[C@@H](CCCCN)C(=O)N[C@@H](CCCCN)C(=O)N[C@@H](CCCNC(=N)N)C(=O)O)[C@@H](C)O)NC(=O)[C@H](CS)NC(=O)[C@H](C)NC1=O` [S2, His-S5-Met-Ala-Cys-S5-Thr-Cys-Ala-Lys-Lys-Leu-Lys-Lys-Arg] (H-H[S5]MAC[S5]TCAKKLKKR-OH; staple 2-6; N-terminus and C-terminus assumed), the “hydroxyproline content (μg/mg protein)” value in series [1] (Table 3 groups) was determined as 0.7063 μg/mg protein. In addition, in series [2], the “α-helicity (%)” value was 25.7% and the “α-helix ratio compared with polypeptide MR2 (in words)” value was “significantly higher than that of polypeptide MR2”. Also, in series [3] (setting [4]), the “Dynamic compliance (mL/cmH2O)” value worked out at 0.2683 mL/cmH2O, the “Dynamic elasticity (cmH2O./mL)” value was determined as 55.33 cmH2O./mL, the “Dynamic resistance (cmH2O · s/Ml)” value turned out to be 1.25 cmH2O · s/Ml and the “Inspiratory capacity” value is on record as 0.688 mL. In series [3] (Table 3 groups, FIG. 11), the “pulmonary function of mice” value was “improved”.
Take “S19: chimeric polypeptide Pep2-MR2, amino acid sequence SEQ ID NO: 19 (HLYVSPWGGHLMACFTCAKKLKKR; chimeric polypeptide Pep2-MR2 S19)”: in series [1] (S19-S21 groups), the “hydroxyproline content (μg/mg protein)” value is recorded as 0.5637 μg/mg protein and the “content of hydroxyproline in the lungs (in words)” value (“content of hydroxyproline” below) is given as “reduce hydroxyproline content”. Moreover, in series [3] (Table 9 groups, 28 days later), the “Dynamic compliance (mL/cmH2O)” value amounted to 0.33 mL/cmH2O, the “Dynamic elasticity (cmH2O./mL)” value was found to be 38.67 cmH2O./mL, the “Dynamic resistance (cmH2O · s/Ml)” value is recorded as 1.143 cmH2O · s/Ml and the “Inspiratory capacity” value is on record as 0.692 mL. Moreover, the “pulmonary function of mice” value in series [3] (Table 9 groups, FIG. 17) was “improved”.
In the case of “S20: chimeric polypeptide TAT-MR2, amino acid sequence SEQ ID NO: 20 (YGRKKRRQRRRGGHLMACFTCAKKLKKR; chimeric polypeptide TAT-MR2 S20)”, in series [1] (S19-S21 groups), the “hydroxyproline content (μg/mg protein)” value is recorded as 0.7443 μg/mg protein and the “content of hydroxyproline” value is on record as “reduce hydroxyproline content”. Further, in series [3] (Table 9 groups, 28 days later), the “Dynamic compliance (mL/cmH2O)” value is given as 0.264 mL/cmH2O, the “Dynamic elasticity (cmH2O./mL)” value came out at 52.17 cmH2O./mL, the “Dynamic resistance (cmH2O · s/Ml)” value is 1.588 cmH2O · s/Ml and the “Inspiratory capacity” value is listed as 0.422 mL. Besides, the “pulmonary function of mice” value in series [3] (Table 9 groups, FIG. 17) is “improved”.
In the case of “S21: chimeric polypeptide Antp-MR2, amino acid sequence SEQ ID NO: 21 (RQIKIWFQNRRMKWKKGGHLMACFTCAKKLKKR; chimeric polypeptide Antp-MR2 S21)”, in series [1] (S19-S21 groups), the “hydroxyproline content (μg/mg protein)” value is on record as 0.7488 μg/mg protein and the “content of hydroxyproline” value was “reduce hydroxyproline content”. Also, in series [3] (Table 9 groups, 28 days later), the “Dynamic compliance (mL/cmH2O)” value is 0.264 mL/cmH2O, the “Dynamic elasticity (cmH2O./mL)” value is 55.33 cmH2O./mL, the “Dynamic resistance (cmH2O · s/Ml)” value is given as 1.355 cmH2O · s/Ml and the “Inspiratory capacity” value was found to be 0.616 mL. In addition, the “pulmonary function of mice” value in series [3] (Table 9 groups, FIG. 17) is reported as “improved”.

The values are drawn from patent US20210179680A1, “POLYPEPTIDE, DERIVATIVES THEREOF, AND APPLICATION THEREOF IN PREPARATION OF DRUGS HAVING RESISTANCE TO PULMONARY FIBROSIS” (priority 2016, published 2021).
